Test results published in patent US20130053430A1, “MODULATION OF CETP EXPRESSION” (Isis Pharmaceuticals, Inc., priority 2010, published 2013).
e = 2'-O-(2-methoxyethyl) (MOE); d = 2'-deoxy (DNA)

Key:
[1] = mouse, in vivo, sc, 25 mg/kg
Text: The saline-injected group served as the control group to which oligonucleotide-treated groups were compared. […] This group served a negative control for the effects of the antisense oligonucleotides against CETP. The groups are further described in Table 27, and are designated letters A-F, by which they will be referred from henceforth.

human CETP mRNA = assay: Dose-dependent antisense inhibition of human CETP in SW872 liposarcoma cells (Example 3); type: cell-based; settings: Lipofectin, ~16 hours (Example 3)
Protocol: ISIS 17291 ([…], 6-8-6 MOE (SEQ ID NO: 115)), ISIS 17302 ([…], 6-8-6 MOE (SEQ ID NO: 116)), and ISIS 17305 ([…], 6-8-6 MOE (SEQ ID NO: 117), first disclosed in U.S. Ser. No. 11/031,827 (incorporated by reference herein), were also tested under the same conditions. Cells were plated at a density of 50,000 cells per well in a 24-well plate and transfected using Lipofectin reagent with 50 nM, 150 nM, and 300 nM concentrations of each antisense oligonucleotide. After approximately 16 hours, RNA was isolated from the cells and CETP mRNA levels were measured by quantitative real-time PCR. CETP mRNA levels were normalized to total RNA content, as measured by the house-keeping gene, GAPDH mRNA levels. Results are presented in Table 5 as percent inhibition of CETP, relative to untreated control cells.

[2] = Liver function, plasma ALT and AST (Example 8); type: in vivo; settings: huCETP transgenic mice, Western diet; 25 mg/kg s.c. twice per week for 2 weeks
Text: The mice were divided into two groups of 4-6 mice each.

Substance: ISIS 349517: 5-10-5 MOE gapmer CAGCACTTTAATGCCAGTGG (sugars from the 5' end e5 d10 e5, backbone and methylation of C not given here)
- Organ weights, Kidney [1]: 0.39
- Organ weights, Liver [1]: 1.51
- Organ weights, Spleen [1]: 0.09
- percent inhibition of CETP (human CETP mRNA; 50 nM): 76%
- percent inhibition of CETP (human CETP mRNA; 150 nM): 91%
- percent inhibition of CETP (human CETP mRNA; 300 nM): 93%
- Transaminase levels, ALT [2]: 26 IU/L
- Transaminase levels, AST [2]: 38 IU/L
